Results as given in patent US9410125B2, “Medium for mammalian somatic cells and additive therefor” (FUJIREBIO INC., priority 2007, dated 2016).

Test system: human bone marrow-derived mesenchymal stem cells (hMSCs)
Test: Adipogenic differentiation of hMSCs (Oil Red O staining)
Assay type: cell-based
Conditions: Example 2, differentiation into adipocytes and osteocytes
Method: Cells maintained for several passages using the conventional medium in (2-2) and 1% S-3, 1% FCS were transferred to wells in a 96-well plate each containing 0.1 mL of an adipocyte differentiation medium (DMEM, 10% FCS, 500 μM isobutylmethylxanthine (IBMX), 1 μM dexamethasone, 1 μM insulin, 1 μM Rosiglitazone) at a cell density of 20,000 cells/cm2, and cultured at 37° C. under 5% CO2 for 14 days, to induce differentiation into adipocytes. differentiated cells were confirmed by Oil Red O staining.
Cells maintained for several passages using conventional medium A and serum-free growth medium A were transferred to wells in a 48-well plate each containing 0.3 mL of an adipocyte differentiation medium (DMEM, 10% FCS, 500 μM IBMX, 1 μM dexamethasone, 1 μM insulin, 1 μM Rosiglitazone) at a cell density of 30,000 cells/cm2, and cultured at 37° C. under 5% CO2 for 14 days, to induce differentiation into adipocytes. differentiated cells were confirmed by Oil Red O staining. […]

## CCCCCCCCCCCCC/C=C/[C@@H](O)[C@@H](N)COP(=O)(O)O [S1P, sphingosine-1-phosphate]
  tendency in differentiation when used instead of LPA as the Edg ligand: did not change
